Source: article PMC9785280, “Synthesis, Antiproliferative Evaluation and QSAR Analysis of Novel Halogen- and Amidino-Substituted Benzothiazoles and Benzimidazoles” (International Journal of Molecular Sciences, 2022)

Legend:
[1] = test system: HuT78 (T-cell lymphoma) cells; experiment: MTT antiproliferative assay, HuT78; format: cell-based, human; conditions: for IC50: Homo sapiens, HuT78, 72 h, 72 h, MTT, mean ± SD of three independent experiments; for SI (BJ) HuT78: SI = IC50 BJ / IC50 HuT78
Method in brief: (§1)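 Adherent cells (2 × 10^4 cells/mL) or suspension cells (1 × 10^5 cells/mL) were exposed 24 h after plating to five 10-fold dilutions (10^−7 to 10^−4 M) for 72 h. MTT was then added for 4 h at 37 °C and absorbance read at 595 nm. GI50 came from variable-slope log(inhibitor) vs normalized response fits.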

[2] = test system: MDCK1 (Madin–Darby canine kidney) cells; experiment: MTT antiproliferative assay, non-tumor MDCK1 cells; format: cell-based; conditions: Canis lupus familiaris, MDCK1, 72 h, mean ± SD of three independent experiments, normal cells
Method in brief: as §1

[3] = test system: CaCo-2 (colon adenocarcinoma) cells; experiment: MTT antiproliferative assay, CaCo-2; format: cell-based, human; conditions: Homo sapiens, Caco-2; 72 h, MTT, mean ± SD of three independent experiments
Method in brief: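 CaCo-2 cells, plated at 2 × 10^4 cells/mL in DMEM with 10 % FBS at 37 °C/5% CO2, were treated 24 h later with five 10-fold dilutions (10^−7 to 10^−4 M) for 72 h. Viability was measured by MTT (4 h, formazan dissolved in DMSO, OD 595 nm) against background and untreated controls. GI50 came from log-concentration versus percent-inhibition fits.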

[4] = test system: HeLa (cervical adenocarcinoma) cells; experiment: MTT antiproliferative assay, HeLa; format: cell-based; conditions: Homo sapiens, 72 h, mean ± SD of three independent experiments
Method in brief: as §1

[5] = test system: human fibroblasts (BJ); experiment: MTT antiproliferative assay, normal BJ fibroblasts; format: cell-based; conditions: Homo sapiens, Fibroblast, 72 h, MTT, mean ± SD of three independent experiments; normal cells
Method in brief: as §1

SMILES | IC50 [1] | IC50 [2] | melting point | IC50 [3] | IC50 [4] | IC50 [5] | SI (BJ) HuT78 [1]
Cl.c1ccc(Cn2cc(COc3ccc(-c4nc5ccc(C6=NCCN6)cc5s4)cc3)nn2)cc1 [37a, 2-(4-((1-Benzyl-1H-1,2,3-triazol-4-yl)methoxy)phenyl)-6-(4,5-dihydro-1H-imidazol-2-yl)benzothiazole hydrochloride] | 1.6 ± 0.8 µM | 1.5 ± 0.3 µM | 153 to 156 °C | 3.7 ± 1.5 µM | 3.6 ± 0.1 µM | 4.3 ± 3.6 µM | 
Cl.Fc1cc(-c2nc3ccc(C4=NCCN4)cc3s2)ccc1OCc1cn(Cc2ccccc2)nn1 [37b, 2-(3-Fluoro-4-((1-benzyl-1H-1,2,3-triazol-4-yl)methoxy)phenyl)-6-(4,5-dihydro-1H-imidazol-2-yl)benzothiazole hydrochloride] | 2.1 ± 0.2 µM | 2.4 ± 0.3 µM | > 240 °C | 6.1 ± 2.7 µM | 4 ± 0.4 µM | 5.3 ± 2.9 µM | 2.52
COc1cc(-c2nc3ccc(C4=NCCN4)cc3s2)ccc1OCc1cn(Cc2ccccc2)nn1.Cl [37c, 2-(3-Methoxy-4-((1-benzyl-1H-1,2,3-triazol-4-yl)methoxy)phenyl)-6-(4,5-dihydro-1H-imidazol-2-yl)benzothiazole hydrochloride] | 3 ± 1 µM | 2.6 ± 0.1 µM | > 240 °C | 4.5 ± 2.7 µM | 3.4 ± 0.2 µM | 4.8 ± 3.5 µM | 1.6
